Test results from patent US9458104B2 (priority 2012, dated 2016).

Tests used:
RORγ = molecular target: T1, RORγ (UniProt P51449); assay type: cell-based; settings: 293T cells, 16 h; for pIC50 (FF): firefly (FF) luciferase; for pIC50 (REN): renilla normalised (RENnorm) luciferase
T1 construct: hRORg-LBD|aa259-518|NP_005051.2; hRORgt|aa1-497|NP_001001523 (RORg, t isoform, 497aa); mRORg-LBD|aa264-516|NP_035411
T1 sequence (P51449 1-518): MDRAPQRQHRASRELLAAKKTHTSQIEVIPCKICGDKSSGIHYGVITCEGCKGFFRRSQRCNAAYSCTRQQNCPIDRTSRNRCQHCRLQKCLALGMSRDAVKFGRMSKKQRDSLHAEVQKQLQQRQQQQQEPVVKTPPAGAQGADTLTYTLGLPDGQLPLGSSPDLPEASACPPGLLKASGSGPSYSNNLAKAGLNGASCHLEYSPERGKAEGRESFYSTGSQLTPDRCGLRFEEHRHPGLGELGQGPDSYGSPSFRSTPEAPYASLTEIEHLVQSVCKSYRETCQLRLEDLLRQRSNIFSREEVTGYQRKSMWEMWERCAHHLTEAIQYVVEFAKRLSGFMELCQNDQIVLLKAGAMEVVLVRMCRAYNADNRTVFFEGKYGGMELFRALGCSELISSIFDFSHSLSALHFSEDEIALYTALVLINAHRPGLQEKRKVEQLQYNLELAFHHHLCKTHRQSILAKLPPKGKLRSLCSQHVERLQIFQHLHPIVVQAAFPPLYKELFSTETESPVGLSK
Experimental: Determination of a ligand mediated Gal4 promoter driven transactivation to quantify ligand binding to RORγ was performed as follows: DNA encoding three different RORγ. protein fragments was cloned into vector pCMV-BD (Stratagene). Expression was under control of a CMV promoter and as fusion to the DNA-binding domain of the yeast protein GAL4. Other vectors used were pFR-Luc (Stratagene) as regulated reporter plasmid. pFR-Luc contains a synthetic promoter with five tandem repeats of the yeast GAL4 binding sites that control expression of the Photinus pyralis (American firefly) luciferase gene. In order to improve experimental accuracy the plasmid pRL-CMV was cotransfected. pRL-CMV contains the constitutive CMV promoter, controlling the expression of the Renilla reniformis luciferase.
All Gal4 reporter gene assays were done in 293T cells (DSMZ (German Collection of Microorganisms and Cell Cultures), Braunschweig, Germany, ACC635) grown in Minimum Essential Medium (MEM) with Phenol Red. The medium is supplemented with 10% fetal bovine serum, 0.1 mM nonessential amino acids, 1 mM sodium pyruvate, 1% Glutamax and 100 units Penicilin/[…] per mL at 37° C. in 5% CO2.
For the assay, […] were plated per well in 96 well plates in 100 μL per well, incubated over night at 37° C. in 5% CO2. The following day, medium was discarded and the cells were transiently transfected using 20 μL per well of a OptiMEM—PEI-based transfection-reagent (Sigma-Aldrich, 408727) including the three plasmids described above. About 4 h after addition of the transfection solution, fresh Minimal Essential Medium (MEM, same composition as used for plating cells, but without serum) was added. Then compound stocks, prediluted in MEM (same composition as used for plating cells) were added (final vehicle concentration not exceeding 0.1%).
All experiments were done at least in triplicates.
It is understood that the data illustrated below may have reasonable variation depending on the specific conditions and procedures used by the person conducting the test.

[1] = molecular target: T2, RORγ ligand binding domain (LBD) (Homo sapiens, UniProt P51449); test: TR-FRET Activity Assay (ligand sensing assay, RORγ-LBD / coactivator peptide interaction); assay type: biochemical
T2 construct: made in house; host or cells: E. coli BL-21 (BL3), vector pDEST15
T2 sequence (P51449 269-508 limits assumed): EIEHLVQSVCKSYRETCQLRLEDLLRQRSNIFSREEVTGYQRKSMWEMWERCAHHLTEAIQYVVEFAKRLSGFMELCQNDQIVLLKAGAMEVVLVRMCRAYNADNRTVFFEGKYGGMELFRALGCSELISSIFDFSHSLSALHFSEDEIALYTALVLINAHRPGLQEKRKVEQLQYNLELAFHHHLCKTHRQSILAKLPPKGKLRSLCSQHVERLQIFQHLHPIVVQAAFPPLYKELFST
Source text: This method measures the ability of putative ligands to modulate the interaction between the purified bacterial expressed RORγ ligand binding domain (LBD) and synthetic N-terminally biotinylated peptides which are derived from nuclear receptor coactivator proteins such as but not limited to SRC1 (NcoA1), SRC2 (NcoA2, TIF2), SRC3 (NcoA3), PGC1α, PGC1β, CBP, GRIP1, TRAP220, RIP140.
The ligand-binding domain (LBD) of RORγ was expressed as fusion protein with GST in […] cells using the vector pDEST15. Cells were lysed by lysozyme-treatment and sonication, and the fusion proteins purified over glutathione sepharose (Pharmacia) according to the manufacturers instructions. For screening of compounds for their influence on the RORγ-peptide interaction, the LANCE technology (Perkin Elmer) was applied. This method relies on the binding dependent energy transfer from a donor to an acceptor fluorophor attached to the binding partner of interest. For ease of handling and reduction of background from compound fluorescence LANCE technology makes use of generic fluorophore labels and time resolved detection assays were done in a final volume of 25 μL in a 384 well plate, in a Tris-based buffer system (20 mM Tris-HCl pH6.8; 60 mM KCl, 1 mM DTT; 5 mM MgCl2; 35 ng/μL BSA), containing 20-60 ng/well recombinantly expressed RORγ-LBD fused to GST, 200-600 nM N-terminally biotinylated peptide, 200 ng/well Streptavidin-xIAPC conjugate (Prozyme) and 6-10 ng/well Eu W1024-antiGST (Perkin Elmer). DMSO content of the samples was kept at 1%.
After generation of the Tris-based buffer system, the potentially RORγ modulating ligands were diluted. […] The LANCE signal was detected by a Perkin Elmer EnVision™ Multilabel Counter. The results were visualized by plotting the ratio between the emitted light at 665 nm and 615 nm. […] Ligands that promote the complex formation induce a concentration-dependent increase in time-resolved fluorescent signal.
To assess the antagonistic potential of the compounds, IC50 values were determined using a Ligand Sensing Assay based on Time-resolved Fluorescence Energy Transfer (TR-FRET) as described above. The normalised TR-FRET assay values, using the following equation: 1000*665 nm measurement value/615 nm measurement value, were transferred to the program GraphPad Prism to generate graphs and dose response curves using the following equation: […]
This is identical to the “four parameter logistic equation”. The IC50 values are calculated using this equation. […] Is is understood that the data illustrated below may have reasonable variation depending on the specific conditions and procedures used by the person conducting the test.

SMILES	pIC50 (FF) (RORγ)	pIC50 (REN) (RORγ)	IC50 [1] [nM]
Cc1c(C(=O)NC2CCOCC2)cn(-c2ccc(S(=O)(=O)NC(C)(C)C)c(C(C)(C)C)c2)c1CC1CCCCC1 [4/2]	7.3	7.5	631
Cn1c(C(=O)NCC(C)(C)O)cc(-c2cc(C(C)(C)C)cc(C3(C)CC3)c2)c1C(=O)C1CCCCC1 [Example 26/1]	7.8	7.9	
CC(C)(C)NS(=O)(=O)c1ccc(-c2cc(C(=O)NC3CCOCC3)nn2CC2CCCCC2)cc1C(F)(F)F [100/5]	7.1	7.2	501
Cc1c(C(=O)NC2CCOCC2)cc(-c2ccc(S(=O)(=O)NC(C)(C)C)c(C(F)(F)F)c2)n1C1CCCCC1 [302/6]	6.5	6.7	1000
CC(C)(C)NS(=O)(=O)c1ccc(-c2nc(C(=O)NC3CCOCC3)nn2CC2CCCCC2)cc1C(C)(C)C [308/9]	5.6	5.6	7940
Cc1c(C(N)=O)cn(-c2cc(C(C)(C)C)cc(C(C)(C)C)c2)c1CC1CCCCC1 [Example 305, 5-(Cyclohexylmethyl)-1-(3,5-di-tert-butylphenyl)-4-methyl-1H-pyrrole-3-carboxamide]	6.3	6.3	200
CC(=O)c1cc(-c2cc(C(C)(C)C)cc(C(C)(C)C)c2)n(CC2CCCCC2)c1C [Example 321, 1-(1-(Cyclohexylmethyl)-5-(3,5-di-tert-butylphenyl)-2-methyl-1H-pyrrol-3-yl)ethanone]	5.8	6.0	794
CC(C)(C)c1cc(-c2[nH]c(C(=O)N[C@H]3C[C@H](C(=O)O)C3)c(Cl)c2CC2CCCCC2)cc(C2(C)CC2)c1 [Example 18, trans-3-(5-(3-(tert-Butyl)-5-(1-methylcyclopropyl)phenyl)-3-chloro-4-(cyclohexylmethyl)-1H-pyrrole-2-carboxamido)cyclobutanecarboxylic acid]	6.6	6.5	1260
Cc1c(C(=O)NCCC(C)(C)C(=O)O)c(Cl)n(-c2ccc(S(=O)(=O)NC(C)(C)C)c(C(F)(F)F)c2)c1CC1CCCCC1 [Example 9, 4-(1-(4-(N-(tert-Butyl)sulfamoyl)-3-(trifluoromethyl)phenyl)-2-chloro-5-(cyclohexylmethyl)-4-methyl-1H-pyrrole-3-carboxamido)-2,2-dimethylbutanoic acid]	8.4	8.4	794
CC(C)(C)c1cc(-n2nc(C(=O)N[C@H]3C[C@H](C(=O)O)C3)cc2OC2CCCCC2)cc(C2(C)CC2)c1 [Example 110, trans-3-(1-(3-(tert-Butyl)-5-(1-methylcyclopropyl)phenyl)-5-(cyclohexyloxy)-1H-pyrazole-3-carboxamido)cyclobutanecarboxylic acid]	nt/6.5/6.5	nt/6.5/6.5	
Cn1c(C(=O)NC2CCS(=O)(=O)CC2)cc(-c2ccc(S(=O)(=O)NC(C)(C)C)c3ccccc23)c1C(=O)C1CCCCC1 [26/4]	7.7	7.8	
CC(C)(C)c1cc(-n2nc(C(=O)NC3CCOCC3)c(Cl)c2OC2CCCCC2)cc(C2(C)CC2)c1 [Example 111/1]	nt/6.6/6.6	nt/6.6/6.6	
Cn1c(C(=O)N[C@H]2C[C@H](C(=O)O)C2)cc(-c2ccc(S(=O)(=O)NC(C)(C)C)c3ccccc23)c1C(=O)C1CCCCC1 [26/2]	7.0	7.2	
CC(C)(C)c1cc(-n2nc(C(=O)N[C@H]3C[C@H](C(=O)O)C3)c(Cl)c2OC2CCCCC2)cc(C2(C)CC2)c1 [Example 111, trans-3-(1-(3-(tert-Butyl)-5-(1-methylcyclopropyl)phenyl)-4-chloro-5-(cyclohexyloxy)-1H-pyrazole-3-carboxamido)cyclobutanecarboxylic acid]	7.3	7.5	
CC(C)(C)NS(=O)(=O)c1ccc(-n2nc(C(=O)N[C@H]3C[C@H](C(=O)O)C3)c(Cl)c2CC2CCCCC2)c2ccccc12 [Example 114, (trans)-3-(1-(4-(N-(tert-Butyl)sulfamoyl)naphthalen-1-yl)-4-chloro-5-(cyclohexyl-methyl)-1H-pyrazole-3-carboxamido)cyclobutanecarboxylic acid]	nt/6.8/6.8	nt/6.8/6.8	
CC(C)(C)NS(=O)(=O)c1ccc(-c2c(Cl)c(C(=O)NC34CCC(C(=O)O)(CC3)CC4)nn2CC2CCCCC2)c(Cl)c1Cl [Example 113, 4-(5-(4-(N-(tert-Butyl)sulfamoyl)-2,3-dichlorophenyl)-4-chloro-1-(cyclohexylmethyl)-1H-pyrazole-3-carboxamido)bicyclo[2.2.2]octane-1-carboxylic acid]	7.5	7.6	
CC(C)(C)NS(=O)(=O)c1ccc(-n2nc(C(=O)NC3CCS(=O)(=O)CC3)c(Cl)c2CC2CCCCC2)c2ccccc12 [Example 114/1]	6.9	7.0	
Cn1c(C(=O)NCC(C)(C)O)cc(-c2ccc(S(=O)(=O)NC(C)(C)C)c3ccccc23)c1C(=O)C1CCCCC1 [26/3]	7.5	7.8	
Cc1c(C(=O)NC2CCS(=O)(=O)CC2)nc(-c2ccc(S(=O)(=O)NC(C)(C)C)c3ccccc23)n1CC1CCCCC1 [Example 320, 2-(4-(N-(tert-Butyl)sulfamoyl)naphthalen-1-yl)-1-(cyclohexylmethyl)-N-(1,1-dioxidotetrahydro-2H-thiopyran-4-yl)-5-methyl-1H-imidazole-4-carboxamide]	5.9	6.0	
